Patent publication US9040725B2, “Benzocycloheptane and benzoxepine derivatives” (Janssen Pharmaceutica NV, priority 2008, dated 2015)
Structures can show the parent of a compound that is named as a salt. Where two headings read alike, the source gives them in different places.

How the values were obtained:
NMRI-mice = assay: Acceleration of gastric emptying and small intestinal propulsion in NMRI-mice; format: in vivo; conditions: lowest active dose, subcutaneous, 30 min before phenol red test meal; for minimal effective dose: Mus musculus, sc
Protocol: Male NMRI-mice weighing around 25 gram were fasted for 20 h and had free access to drinking water. Test compounds were administered to the animals by subcutaneous route 30 min before they were given a test meal by oral gavage. The test meal consisted of 0.3 ml of a chocolate nutridrink solution (1.0 kcal/ml) containing phenol red marker (5 mg/ml). Fifteen min after administration of the meal, the mice were sacrificed by CO2 gas inhalation. The phenol red content remaining in the stomach (extracted from the stomach with NaOH) was determined at 557 nm in a spectrophotometer and expressed as extinction units. Small intestinal propulsion was determined as the distance traveled by the phenol red marker through the intestine and expressed as a percentage of total small intestinal length (from the pylorus to the ileo-cecal junction).
The lowest dose that was active for each parameter was noted as the lowest active dose (LAD). Table 12 discloses LAD values.

GHS1A-receptor = target: T1, GHS1A-receptor (Homo sapiens, UniProt Q92847); assay: Ghrelin-agonism in HEK293 cells (intracellular calcium, FLIPR); format: cell-based; conditions: HEK293 cells permanently transfected with GHS1A-receptor, calcium fluorescence (fluo-4 or Kit-3), EC50 in M, read-out: pEC50 (converted)
T1 construct: expressed in transfected cells; host or cells: HEK293
T1 sequence (Q92847 whole entry): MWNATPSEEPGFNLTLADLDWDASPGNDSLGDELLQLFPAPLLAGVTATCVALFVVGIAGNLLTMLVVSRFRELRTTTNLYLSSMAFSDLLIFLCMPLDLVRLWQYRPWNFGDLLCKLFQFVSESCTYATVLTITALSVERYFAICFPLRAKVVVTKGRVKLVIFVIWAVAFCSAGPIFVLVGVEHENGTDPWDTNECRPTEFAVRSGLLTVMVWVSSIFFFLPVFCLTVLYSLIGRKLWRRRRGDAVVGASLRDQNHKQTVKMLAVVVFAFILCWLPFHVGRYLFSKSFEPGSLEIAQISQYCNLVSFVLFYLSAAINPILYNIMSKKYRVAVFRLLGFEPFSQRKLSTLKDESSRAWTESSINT
Protocol: One day before the experiment, HEK293 cells, permanently transfected with the gene sequence for expression of the GHS1A-receptor, were seeded in poly-D-Lysine coated 96-well plates with clear bottom, and allowed to grow to […] of confluence on the next day.
Then, cells were incubated with the calcium-sensitive intracellular fluorescent probe fluo-4 or Kit-3 for 1 h at 37° C. Fluorescence representing free intracellular calcium in the cells was measured in a FLIPR-system (excitation at 488 nm, emission>520 nm). Test compounds were added to each well at the desired concentration and the fluorescence signal was simultaneously recorded in all wells. Release of intracellular calcium triggered by activation of the receptors upon addition of the test compound was measured as the fluorescence emitted from the complex of calcium and the fluorescent probe. The drug effect on fluorescence intensity was expressed relative to the maximal fluorescence intensity measured in cells exposed to the calcium-ionophore ionomycin.

[1] = active when >60% of animals had phenol red front beyond 85% of small intestinal length, read-out: LAD (mg/kg) Small intestinal propulsion
[2] = stomach content 15 min after meal, active when >60% of animals below 0.9 extinction units, read-out: LAD (mg/kg) Gastric emptying

EC50 (GHS1A-receptor) [µM]	Molecule	other results
0.251	Cc1ccc([C@H]2CCCc3ccccc3[C@]2(O)CCCN(C)C)cn1 (racemic) [Compound 16, (±)cis-5-(3-Dimethylamino-propyl)-6-(6-methyl-pyridin-3-yl)-6,7,8,9-tetrahydro-5H-benzocyclohepten-5-ol hydrochloride]	minimal effective dose (NMRI-mice; [1]): > 10 mg/kg; minimal effective dose (NMRI-mice; [2]): 10 mg/kg
0.0398	CCN(CC)CCCC1(O)c2ccccc2CCCC1c1ccc2c(c1)OCO2 (racemic) [Compound 89]	minimal effective dose (NMRI-mice; [1]): > 10 mg/kg; minimal effective dose (NMRI-mice; [2]): > 10 mg/kg
3.98	COc1cncc(C2CCOc3ccccc3C2(O)CCCN(C)C)c1 (racemic) [Compound 100]	
1	CN(C)CCCC1(O)c2ccccc2CCCC1c1ccc(Cl)cc1 (single isomer, unassigned) [Compound 5]	
> 10	OC1(CCCN2CCCCC2)c2ccccc2CCCC1c1ccc(F)cc1F (racemic) [Compound 59]	
1.58	CN(CCCC1(O)c2ccccc2CCCC1c1cnc2ccccc2c1)Cc1ccccc1 (racemic) [Compound 87]	
0.794	OC1(CCCN2CCCCC2)c2ccccc2CCCC1c1ccc(Cl)cc1 (racemic) [Compound 50]	
3.98	Cc1cccc(C2CCCc3ccccc3C2(O)CCCN(C)Cc2ccccc2)c1 (racemic) [Compound 24]	
0.0251	CN(C)CCCC1(O)c2ccccc2CCCC1c1ccc(F)cc1F (racemic) [Compound 56]	minimal effective dose (NMRI-mice; [1]): > 10 mg/kg; minimal effective dose (NMRI-mice; [2]): 10 mg/kg
1.58	CN1CCN(CCCC2(O)c3ccccc3CCCC2c2ccc(F)cc2)CC1 (racemic) [Compound 55]	
0.0251	CCN(CC)CCCC1(O)c2ccccc2CCCC1c1ccc(C)cc1 (racemic) [Compound 31]	
0.0631	CN(C)CCCC1(O)c2ccccc2CCCC1c1ccccc1 (racemic) [Compound 106]	minimal effective dose (NMRI-mice; [1]): 10 mg/kg; minimal effective dose (NMRI-mice; [2]): 10 mg/kg
> 31.6	COc1ccc(C2CCCc3ccccc3C2(O)CCCNCc2ccccc2)cc1 (racemic) [Compound 68]	
0.0794	OC1CCN(CCCC2(O)c3ccccc3CCCC2c2ccc(Cl)cc2)C1 (racemic) [Compound 49]	
0.0398	CNCCCC1(O)c2ccccc2CCCC1c1cccc(C)c1 (racemic) [Compound 22]	minimal effective dose (NMRI-mice; [1]): > 10 mg/kg; minimal effective dose (NMRI-mice; [2]): > 10 mg/kg
2	COc1ccccc1C1CCOc2ccccc2C1(O)CCCN(C)C (racemic) [Compound 96]	minimal effective dose (NMRI-mice; [1]): > 10 mg/kg; minimal effective dose (NMRI-mice; [2]): > 10 mg/kg
0.316	CN(C)CCC[C@@]1(O)c2ccccc2OCC[C@@H]1c1ccccc1 (relative stereo) [Compound 8]	
3.16	Cc1ccc(C2CCCc3ccccc3C2(O)CCCN2CCN(C)CC2)cc1 (racemic) [Compound 33]	
1	Cc1ccc(C2CCCc3ccccc3C2(O)CCCN2CCCCC2)cc1 (racemic) [Compound 32]	
0.0316	CCN(CC)CCCC1(O)c2ccccc2CCCC1c1ccc(F)cc1F (racemic) [Compound 57]	minimal effective dose (NMRI-mice; [1]): 10 mg/kg; minimal effective dose (NMRI-mice; [2]): 10 mg/kg

EC50 (GHS1A-receptor) [µM]	Molecule	other results
0.0794	OC1(CCCN2CCCC2)c2ccccc2CCCC1c1ccccc1 (racemic) [Compound 21]	minimal effective dose (NMRI-mice; [1]): > 10 mg/kg; minimal effective dose (NMRI-mice; [2]): > 10 mg/kg
0.251	CC(C)NCCCC1(O)c2ccccc2CCCC1c1cncc(Cl)c1 (racemic) [Compound 82]	minimal effective dose (NMRI-mice; [1]): > 10 mg/kg; minimal effective dose (NMRI-mice; [2]): > 10 mg/kg
0.0794	CNCCCC1(O)c2ccccc2CCCC1c1ccc(C)cc1 (racemic) [Compound 27]	minimal effective dose (NMRI-mice; [1]): > 10 mg/kg; minimal effective dose (NMRI-mice; [2]): > 10 mg/kg
2	COCCN(C)CCCC1(O)c2ccccc2CCCC1c1ccc(O)cc1 (racemic) [Compound 37]	
0.794	CC(C)NCCCC1(O)c2ccccc2CCCC1c1ccc(Cl)cc1 (racemic) [Compound 45]	
1.26	COCCN(C)CCCC1(O)c2ccccc2CCCC1c1ccc(OC)cc1 (racemic) [Compound 70]	
0.158	CCN(CC)CCCC1(O)c2ccccc2CCCC1c1ccc(OC)cc1 (racemic) [Compound 67]	minimal effective dose (NMRI-mice; [1]): > 10 mg/kg; minimal effective dose (NMRI-mice; [2]): > 10 mg/kg
25.1	COc1ccc(C2CCCc3ccccc3C2(O)CCCN)cc1 (racemic) [Compound 64]	
0.01	CN(C)CCCC1(O)c2ccccc2CCCC1c1ccc(Cl)cc1 (single isomer, unassigned) [Compound 6]	
3.16	CC(=O)N1CCN(CCCC2(O)c3ccccc3CCCC2c2cccc(C)c2)CC1 (racemic) [Compound 26]	
0.0158	COCCN(C)CCCC1(O)c2ccccc2CCCC1c1ccc(Cl)c(OC)c1 (racemic) [Compound 75]	
> 10	Oc1ccc([C@H]2CCCc3ccccc3[C@]2(O)CCCN2CCOCC2)cc1 (racemic) [Compound 7]	
0.126	CNCCCC1(O)c2ccccc2CCCC1c1ccc(Cl)cc1 (racemic) [Compound 43]	minimal effective dose (NMRI-mice; [1]): > 10 mg/kg; minimal effective dose (NMRI-mice; [2]): > 10 mg/kg
0.2	CNCCCC1(O)c2ccccc2CCCC1c1ccccc1 (racemic) [Compound 19]	minimal effective dose (NMRI-mice; [1]): > 10 mg/kg; minimal effective dose (NMRI-mice; [2]): > 10 mg/kg
0.316	COc1cc(C2CCCc3ccccc3C2(O)CCCN2CCC(O)C2)ccc1Cl (racemic) [Compound 73]	minimal effective dose (NMRI-mice; [1]): 10 mg/kg; minimal effective dose (NMRI-mice; [2]): > 10 mg/kg
0.00794	CCN(CC)CCCC1(O)c2ccccc2CCCC1c1cccc(Cl)c1 (racemic) [Compound 41]	minimal effective dose (NMRI-mice; [1]): > 10 mg/kg; minimal effective dose (NMRI-mice; [2]): > 10 mg/kg
0.158	COCCN(C)CCCC1(O)c2ccccc2CCCC1c1ccc2c(c1)OCO2 (racemic) [Compound 90]	
0.0501	CNCCCC1(O)c2ccccc2CCCC1c1cccc(Cl)c1 (racemic) [Compound 39]	minimal effective dose (NMRI-mice; [1]): > 10 mg/kg; minimal effective dose (NMRI-mice; [2]): > 10 mg/kg
1.58	Cc1cccc(C2CCCc3ccccc3C2(O)CCCN2CCOCC2)c1 (racemic) [Compound 25]	
0.794	COc1ccc(C2CCCc3ccccc3C2(O)CCCN(C)C)cc1OC (racemic) [Compound 77]	

EC50 (GHS1A-receptor) [µM]	Molecule	other results
6.31	CCN(CC)CCCC1(O)c2ccccc2OCCC1c1ccc(OC)nc1 (racemic) [Compound 103]	
0.251	Cc1ccc([C@H]2CCOc3ccccc3[C@]2(O)CCCN(C)Cc2ccccc2)cc1 (racemic) [Compound 10]	
	GHRP-6 [reference compound]	LAD (mg/kg) Small intestinal propulsion (NMRI-mice; active when >60% of animals had phenol red front beyond 85% of small intestinal length): 2.5 mg/kg; LAD (mg/kg) Gastric emptying (NMRI-mice; stomach content 15 min after meal, active when >60% of animals below 0.9 extinction units): 0.63 mg/kg
1.58	CNCCCC1(O)c2ccccc2CCCC1c1ccc(OC)c(OC)c1 (racemic) [Compound 76]	
0.0251	CCN(CC)CCCC1(O)c2ccccc2CCCC1c1cccc(OC)c1 (racemic) [Compound 61]	
0.0316	COCCN(C)CCCC1(O)c2ccccc2CCCC1c1cccc(C)c1 (racemic) [Compound 23]	
0.794	Cc1ccc([C@H]2CCOc3ccccc3[C@]2(O)CCCN(C)C)cn1 (racemic) [Compound 9]	
2.51	COc1cccc(C2CCCc3ccccc3C2(O)CCCN(C)Cc2ccccc2)c1 (racemic) [Compound 62]	
1.58	CO[C@]1(CCCN(C)C)c2ccccc2CCC[C@@H]1c1ccc(Cl)cc1 (racemic) [Compound 15]	
5.01	CN(CCCC1(O)c2ccccc2CCCC1c1ccc(Cl)cc1)Cc1ccccc1 (racemic) [Compound 47]	
1	OC1CCN(CCCC2(O)c3ccccc3CCCC2c2ccc3c(c2)OCO3)C1 (racemic) [Compound 91]	
2	CCN(CC)CCCC1(O)c2ccccc2OCCC1c1cncc(OC)c1 (racemic) [Compound 101]	
0.501	CCNCCCC1(O)c2ccccc2CCCC1c1ccc(Cl)cc1 (racemic) [Compound 44]	
0.794	CNCCCC1(O)c2ccccc2CCCC1c1ccc(OC)cc1 (racemic) [Compound 65]	
> 10	COc1ccc(C2CCCc3ccccc3C2(O)CCCN(C)Cc2ccccc2)cc1 (racemic) [Compound 69]	
2	COCCN(C)CCCC1(O)c2ccccc2CCCC1c1ccc(OC)c(OC)c1 (racemic) [Compound 79]	
1.58	OC1(CCCN2CCNCC2)c2ccccc2CCCC1c1ccc(Cl)cc1 (racemic) [Compound 51]	
2	CN(C)CCCC1(O)c2ccccc2CCCC1c1ccccc1 (single isomer, unassigned) [Compound 104]	
